“Also recorded” adds a separate entry of the source.
Experiments:
[1] = biological target: Bcl-xL protein (Homo sapiens, UniProt Q07817)
[2] = biological target: BRD4-BD1 protein (Homo sapiens, UniProt O60885); conditions: 1 M LiCl, pH 7.5

Chain of Bcl-xL protein (Q07817 with tags, fused parts or gaps DEL45-84): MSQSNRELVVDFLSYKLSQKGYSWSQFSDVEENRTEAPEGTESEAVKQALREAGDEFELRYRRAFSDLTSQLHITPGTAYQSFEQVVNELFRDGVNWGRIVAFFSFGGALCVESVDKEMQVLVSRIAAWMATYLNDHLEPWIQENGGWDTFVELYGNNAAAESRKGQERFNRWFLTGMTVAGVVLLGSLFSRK

Compound | current noise (IN) signal of Bcl-xL on individual treatment ([1]; FIG. 17A) | change in pattern of ionic current / current blockade of Bcl-xL on addition of ligand ([1]; ligand added individually to Bcl-xL in cis compartment) | nanopore current blockade signal of BRD4-BD1 with ligand [2]
CN(C)CC[C@H](CSc1ccccc1)Nc1ccc(S(=O)(=O)NC(=O)c2ccc(N3CCN(Cc4ccccc4-c4ccc(Cl)cc4)CC3)cc2)cc1[N+](=O)[O-] [ABT-737] | specifically increased | change in pattern; also recorded: the pattern of ionic current changed significantly | 
CCOc1cc(N2CCC(O)CC2)ccc1Nc1ncc2c(n1)N(C)c1ccccc1C(=O)N2C [XMD8-92] |  |  | characteristic nanopore current blockade patterns were observed
